# Laboratory results taken from ChEMBL document CHEMBL1157320, “Hepatoprotective sesquiterpene glycosides from Sarcandra glabra” (J Nat Prod, 2006).
# Tests used:
# [1] = Cytotoxicity against rat WB-F344 cells assessed as cell survival rate at 0.1 mM by MTT method relative to control; assay type: cell-based; details: read-out: Activity
# [2] = Hepatoprotective activity in rat WB-F344 cells assessed as inhibition of D-galactosamine-induced toxicity at 0.1 mM by MTT method relative to control; assay type: functional
Structure (SMILES),viability at 100 µM [1] [%],inhibition at 100 µM [2] [%]
C=C1[C@H]2C[C@H]2[C@]2(C)[C@H](O)[C@]3(O[C@@H]4O[C@H](CO)[C@@H](O)[C@H](O)[C@H]4O)OC(=O)C(C)=C3C[C@@H]12,45.5,26
COC(=O)c1cc(OC)c2c(c1-c1c(CO)cc(OC)c3c1OCO3)OCO2 [BICYCLOL],46.6,27.4
CC1=C2C[C@@H]3[C@@](C)(C=C2OC1=O)[C@@H]1C[C@@H]1[C@]3(O)CO[C@@H]1O[C@H](CO)[C@@H](O)[C@H](O)[C@H]1O [CHLORANOSIDE A],54.5,38.2
C=C1CC[C@H](O[C@@H]2O[C@H](CO)[C@@H](O)[C@H](O)[C@H]2O)[C@]2(C)C[C@@H]3OC(=O)C(C)=C3C[C@@H]12 [SARCAGLABOSIDE A],47.5,28.7
C=C1C=C[C@H](O[C@@H]2O[C@H](CO)[C@@H](O)[C@H](O)[C@H]2O)[C@]2(C)C[C@@H]3OC(=O)C(C)=C3C[C@@H]12 [SARCAGLABOSIDE B],74.9,65.9
C=C[C@]1(C)C[C@@H]2OC(=O)C(C)=C2C[C@H]1C(=C)CO[C@@H]1O[C@H](CO)[C@@H](O)[C@H](O)[C@H]1O [SARCAGLABOSIDE C],53,36.1
C=C[C@]1(C)C[C@@H]2OC(=O)C(C)=C2C[C@H]1C(=C)CO[C@@H]1O[C@H](CO[C@@H]2OC[C@](O)(CO)[C@H]2O)[C@@H](O)[C@H](O)[C@H]1O [SARCAGLABOSIDE D],46.3,27
CC1=C2C/C=C(\CO[C@@H]3O[C@H](CO[C@@H]4OC[C@](O)(CO)[C@H]4O)[C@@H](O)[C@H](O)[C@H]3O)CC/C=C(\C)C[C@@H]2OC1=O [SARCAGLABOSIDE E],42.4,21.7
